Laboratory results: patent US20090233307A1, “METHODS FOR DETECTION OF SINGLE STRAND BREAKS IN DNA” (The University of North Carolina at Chapel Hill, priority 2008, published 2009)

Experiments:
[1] = tested on: DT40 cells; assay: SSB repair through NAD(P)H depletion, DT40 cells; type: cell-based, chicken; settings: DT40 cells exposed to MMS
Method: (§1) SSB repair capacity was determined by a real-time colorimetric assay that measures intracellular NAD(P)H levels (Tano et al., DNA Repair, 6, 869-875 (2007)). PARP-1 activation during SSB repair leads to NAD^+ consumption, which can be indirectly monitored through NAD(P)H depletion (Nakamura et al., Nucleic Acids Res., 31, e104 (2003)). Briefly, 5×10^3 cells/well were seeded into a 96-well plate. After a 30 minute incubation period, the cells were treated with 1 mM MMS quickly followed by the addition of a dye containing XTT (Sigma) and 1-methoxy PMS (Sigma). For up to 4 hours, the NAD(P)H-dependent conversion of the XTT tetrazolium salt to a yellow colored formazan dye was measured spectrophotometrically. Decreases in intracellular NAD(P)H levels were determined through comparison of values to those of the PBS control. Established methods for detecting SSBs have not been adequately characterized for pH effects on DNA structure and chemistry and also lack a high specificity for SSBs, primarily because of artifactual SSB formation. […] The accumulation of SSBs leads to PARP-1 over-activation and the consumption of NAD+, which is indirectly monitored in living cells through the measurement of intracellular NAD(P)H depletion using tetrazolium salts, such as XTT, during chemical exposure (Tano et al., DNA Repair, 6, 869-875 (2007)). […]

[2] = tested on: Pol β null cells; assay: SSB repair through NAD(P)H depletion, Pol β null cells; type: cell-based, chicken; settings: Pol β null cells exposed to MMS
Method: as §1

[3] = tested on: DT40 cells; assay: Cell death in DT40 cells; type: cell-based; settings: unpublished data
[4] = tested on: Chinese hamster ovary (CHO) AA8 cells; assay: OTX-coupled comet assay; type: cell-based; settings: 1 mM MMS 10 minutes
Method: Chinese hamster ovary (CHO) AA8 cells were seeded at a concentration 0.5×10^6 cell/mL into several 10 cm culture dishes with 10 mL of MEM-α media (Gibco) supplemented with 10% fetal bovine serum (heat inactivated; Sigma), 100 μg/mL penicillin, and 100 μg/mL streptomycin. These were allowed to grow for 48 hours at 37° C. and 5% CO2. Culture dishes were about 80-85% confluent at harvest.
Before cells were harvested for use in the comet assay, the lysis solution (2.5 M NaCl, 100 mM Na2-EDTA, 10 mM Trizma, pH 10) was completed with the addition of 10% (v/v) DMSO and 1% (v/v) Triton X-100, mixed thoroughly, and refrigerated at 4° C. A 0.5% solution of low melting point agarose (LMPA) was also prepared and allowed to equilibrate to 37° C. in a water bath. Partially frosted microscope slides, pre-coated several days before with 50 μL of 1% normal melting point agarose (NMPA), were labeled and set aside.
Prior to cell harvest, the media was removed and each dish was washed with 10 mL of 1×PBS. An additional 2 mL of 1×PBS was added to each dish and the cells were harvested using a rubber policeman. Harvested cells were combined into 15 mL centrifuged tubes and gently mixed by pipetting to obtain a homogenous cell sample. The cell count was obtained using a hemacytometer. The volume of cell sample needed to obtain 11,000 cells per slide to be prepared was added to a new 15 mL centrifuge tube and centrifuged for 5 minutes at 1,100 RPM. The supernatant was removed and the cell pellet resuspended in 1×PBS at a volume equal to 10 μL per slide to be prepared (e.g. 5 slides×10 μL per slide=50 μL 1×PBS total).
For each slide to be prepared, 10 μL of the cell sample was added to a 1.5 mL centrifuge tube. The cell layer of the slide was created by first gently mixing 100 μL of the 0.5% LMPA with the 10 μL of cell sample in the tube. This mixture was then added to a pre-coated slide and a coverslip placed onto the slide to create a thin layer of the cell mixture. Slides with cell layers were then refrigerated at 4° C. for 15 minutes to solidify the gel. After this incubation, the initial coverslips were removed and an additional 150 μL of 0.5% LMPA was added to each slide. A fresh coverslip was placed onto each slide to create a thin top layer and the slides were refrigerated for another 15 minutes. After removing the coverslip, completed slides that were receiving MMS treatment were placed in a slide chamber containing warmed MEM-α media with 1 mM MMS for 10 minutes. The slide chamber was kept warm by placing it within an incubator held at 37° C. After the 10 minutes, the slides were washed with 1×PBS for 5 minutes at room temperature and then transferred to slide chambers containing the chilled lysis solution. […]

[5] = tested on: AP sites in genomic DNA exposed to heat/acid conditions; assay: OTX optimization for protection of AP sites from alkaline cleavage (alkaline gel electrophoresis); design: species or system chicken; settings: OTX 37° C. 1 hour, denaturation 100 mM NaOH (pH 12.8)
Method: AP sites were produced in stock DT40 DNA through exposure to heat/acid conditions. DT40 DNA was incubated in sodium citrate buffer (10 mM sodium citrate, 10 mM NaH2PO4, 10 mM NaCl pH 5) for 5 minutes at 70° C., followed by rapid chilling on ice to stop the reaction (Nakamura et al., Cancer Res., 58, 222-225 (1998)). Depurinated DNA was collected using Microcon® YM-3 centrifugal filter devices (Amicon Bioseparations). This DNA was then washed several times with HEPES buffer (50 mM, pH 7) supplemented with 1 mM 2,2,6,6-tetramethylpiperidine-N-oxyl (TEMPO). DNA was resuspended in HEPES buffer containing 1 mM TEMPO.
An alkaline gel electrophoresis protocol (AGE) (Drouin et al., in: Technologies for Detection of DNA Damage and Mutations (G. P. Pfeifer, ed.). Plenum Press, New York, N.Y., pp. 37-43 (1996)) with modifications was used to assess SSBs and ALSs in DNA from exposed cells. The 0.7% agarose gel was prepared in gel buffer (50 mM NaCl, 1 mM EDTA, pH 7) and deionized water. After forming, the gel was soaked in mild alkaline running buffer (30 mM NaOH, 1 mM EDTA, pH 12.4) for at least 30 minutes. Equal amounts of DNA (3-5 μg) were incubated for 1 hour at 37° C. in the presence or absence of 30 mM OTX (Aldrich) in 50 mM HEPES buffer. […] Following OTX exposure, the samples were denatured through treatment with an alkaline buffer (100 mM NaOH, 30 mM OTX, 50 mM HEPES, pH 12.8) for 20 minutes at 37° C. Samples then received loading buffer (10 mM NaOH, 95% formamide (Fluka), 0.05% bromophenol blue, 0.05% xylene cyanol) and were loaded onto the agarose gel. The gel was subjected to electrophoresis at a constant voltage (30 V) for 16 hours at 4° C. At the completion of electrophoresis, the gel was placed in neutralization buffer (400 mM Tris, pH 7.5) for 20 minutes at room temperature. […]
With knowledge of optimal AP site cleavage (pH≧12.2) and DNA denaturation (pH≦12.56) conditions, the utility of stabilizing AP sites prior to complete unwinding at high pH was assessed for subsequent gel electrophoresis. […]

Row | SMILES | protection from MMS-induced NAD(P)H depletion [1] | protection from MMS-induced NAD(P)H depletion [2] | concentration that induces cell death [3] [µM] | tail moments over the various incubation times with OTX protection ([4]; 300 mM OTX 0-4 hours at 37° C.) | tail moment with OTX protection vs 1 hour incubation without OTX ([4]; 300 mM OTX, 1 hour incubation) | tail moment, one hour incubation with OTX vs zero hour incubation control without OTX ([4]; 300 mM OTX, one hour) | optimum concentration to protect AP sites from alkaline cleavage [5] [mM] | OTX concentration with complete protection of AP sites from alkaline cleavage ([5]; electrophoresis pH 12.4) [mM] | OTX concentration with little to no protection of AP sites from alkaline cleavage ([5]; electrophoresis pH 12.4) [mM]
1 | NC(=O)c1cccc(N)c1 [3-aminobenzamide] | mostly protected | mostly protected | – | – | – | – | – | – | –
2 | CON [Methoxyamine] | – | – | 20000 to 30000 | – | – | – | – | – | –
3 | NOC1CCCCO1 (stereo not shown) [OTX, O-(tetrahydro-2H-pyran-2-yl)hydroxylamine] | – | – | 2000 | no significant increase in tail moments | significant decrease in tail moment | significant decrease in tail moment | 30 | ≥ 10 | < 1
